BindingDB's records for doi:10.7270/Q2NS0SCW (Burnham Center For Chemical Genomics, 2010)

Legend:
[1] = target: Alkaline phosphatase, placental type (Homo sapiens, UniProt P05187); assay: inhibition of placental alkaline phosphatase – biochemical, uHTS hits, selectivity assay for mouse IAP inhibitor project, dose response (AID 488879)
[2] = as above

Sequence of Alkaline phosphatase, placental type (P05187 whole entry, looked up): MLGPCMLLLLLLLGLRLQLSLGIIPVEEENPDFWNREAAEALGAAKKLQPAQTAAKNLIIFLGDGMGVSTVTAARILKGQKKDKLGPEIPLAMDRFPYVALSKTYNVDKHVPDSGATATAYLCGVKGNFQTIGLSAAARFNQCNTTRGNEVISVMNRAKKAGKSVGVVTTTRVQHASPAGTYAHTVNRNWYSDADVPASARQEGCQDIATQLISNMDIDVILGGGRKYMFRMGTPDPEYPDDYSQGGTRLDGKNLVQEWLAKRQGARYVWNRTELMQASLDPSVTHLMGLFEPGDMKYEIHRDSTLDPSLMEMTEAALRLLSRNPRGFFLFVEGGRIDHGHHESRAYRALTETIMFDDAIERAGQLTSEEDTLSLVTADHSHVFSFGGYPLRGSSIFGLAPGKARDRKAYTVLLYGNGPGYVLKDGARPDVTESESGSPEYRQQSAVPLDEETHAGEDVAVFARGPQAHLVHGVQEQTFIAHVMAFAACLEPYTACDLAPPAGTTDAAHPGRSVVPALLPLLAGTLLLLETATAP

| SMILES | IC50 [1] | IC50 [2] |
| --- | --- | --- |
| O=C1C=CC(C=NNC(=S)Nc2ccccc2[N+](=O)[O-])C=C1O (stereo not given) [MLS000417596] | > 100 µM |  |
| Oc1ccc(C=Nn2c(O)csc2=S)c(O)c1O [3-[[(E)-[2,3-bis(oxidanyl)-4-oxidanylidene-cyclohexa-2,5-dien-1-ylidene]methyl]amino]-2-sulfanylidene-1,3-thiazolidin-4-one] | > 100 µM |  |
| NS(=O)(=O)c1cc(C(=O)NNC2=c3ccccc3=NC2=O)ccc1Cl [2-chloro-5-[[(2-oxoindol-3-yl)amino]carbamoyl]benzenesulfonamide] | > 100 µM |  |
| COc1cc(C=Nn2c(O)csc2=S)ccc1O [3-[[(E)-(3-methoxy-4-oxidanylidene-cyclohexa-2,5-dien-1-ylidene)methyl]amino]-2-sulfanylidene-1,3-thiazolidin-4-one] | > 100 µM |  |
| C#CCOCCOCCOCCNc1nc(N2CCN(C(=O)CCCCCCCCCCNC(=O)[C@@H](CCSC)n3cc(CCO)nn3)CC2)nc(N2CCN(C(=O)CCCCCCCCCCNC(=O)[C@H]([C@@H](C)CC)n3cc(CCCCCN)nn3)CC2)n1 [MLS002153719] | > 100 µM |  |
| O=C(Nn1c(O)csc1=S)C(=O)Nn1c(O)csc1=S [SMR000349781] | > 100 µM |  |
| COc1cc(C=CC(=O)CC(=O)C=Cc2ccc(O)cc2)ccc1O [demethoxycurcumin] | > 100 µM |  |
| O=C1Nc2ccccc2/C1=C1/SC(=S)N(NC(=O)c2ccccc2)C1=O [N-[(5Z)-4-oxo-5-(2-oxo-1H-indol-3-ylidene)-2-sulfanylidene-3-thiazolidinyl]benzamide] |  | 5.31 µM |
| Cc1ccc(Cl)c2c1NC(=O)/C2=C1/NC(=S)NC1=O | > 100 µM |  |
| NS(=O)(=O)c1ccc(N=Nc2c(=O)[nH]n3c(=O)c4c([nH]c23)CCCC4)cc1 [SMR000231775] | 21.8 µM |  |
| Cc1ccc(/C=C2\SC(=S)N(/N=C/C3C=C([N+](=O)[O-])C=CC3=O)C2=O)o1 (stereo not given) [(5Z)-5-[(5-methylfuran-2-yl)methylidene]-3-[[(E)-(3-nitro-6-oxocyclohexa-2,4-dien-1-ylidene)methyl]amino]-2-sulfanylidene-1,3-thiazolidin-4-one] | > 100 µM |  |
| CC1NON=C1C(=O)NN=CC1=CC(=O)C(=O)C=C1 (stereo not given) [4-Methyl-furazan-3-carboxylic acid (3,4-dihydroxy-benzylidene)-hydrazide] | 18 µM |  |
| C#CCOCCOCCOCCNc1nc(N2CCN(C(=O)CCCCCCCCCCNC(=O)[C@H]([C@@H](C)CC)n3cc(CCCCN=C(N)N)nn3)CC2)nc(N2CCN(C(=O)CCCCCCCCCCNC(=O)[C@@H]([C@H](C)O)n3cc(C)nn3)CC2)n1 [GT-RI] | > 100 µM |  |
| Nc1nnc(CC(=O)N/N=C/C2C=C([N+](=O)[O-])C=C(Br)C2=O)s1 (stereo not given) [2-(5-azanyl-1,3,4-thiadiazol-2-yl)-N'-[(E)-(5-bromanyl-3-nitro-6-oxidanylidene-cyclohexa-2,4-dien-1-ylidene)methyl]ethanehydrazide] | > 100 µM |  |
| O=c1cc(O)cc2oc(-c3ccc(O)c(O)c3)c(O[C@@H]3O[C@H](CO)[C@@H](O)[C@H](O)[C@H]3O)c(O)c1-2 [Quercetin 3-O-beta-D-glucoside] | > 100 µM |  |
